Marks after values point to notes of the source that are not given here.
Tests used:
Format in all cases: in vivo
Botrytis cinerea = test: Test A: preventive spray on tomato seedlings, visual disease rating (tomato Botrytis)
In short: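 Tomato seedlings sprayed to run-off with 200 ppm suspension (800 g/ha; asterisk marks 40 ppm), inoculated next day with Botrytis cinerea spores, held 48 h saturated at 20 °C then 3 days at 24 °C. Visual rating: 100 = full disease control, 0 = none, relative to controls.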

Alternaria solani = test: Test B: preventive spray on tomato seedlings, visual disease rating (tomato early blight)
In short: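 Compounds were suspended at 200 ppm (asterisked values at 40 ppm) in acetone/water with surfactant and sprayed to run-off on tomato seedlings, 200 ppm being equivalent to 800 g/ha. A. solani spores were inoculated the next day, with 48 h at 27 °C in saturated air, then 5 days at 20 °C. Disease control was rated visually, 0–100% relative to controls.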

Septoria nodorum = test: Test C: preventive spray on wheat seedlings, visual disease rating (Septoria glume blotch)
In short: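 Wheat seedlings were sprayed to run-off with 200 ppm suspension (40 ppm where marked; 200 ppm ≈ 800 g/ha) in acetone/water with 250 ppm Trem 014, then inoculated next day with Septoria nodorum spores. Incubation was 48 h saturated at 24 °C, then 6 days at 20 °C; visual rating 0–100% disease control versus controls.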

Septoria tritici = test: Test D: preventive spray on wheat seedlings, visual disease rating (wheat leaf blotch)
In short: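 Wheat seedlings were sprayed to run-off with a 200 ppm suspension (equal to 800 g/ha), or 40 ppm where marked with an asterisk, and inoculated with Septoria tritici spores the next day. Plants were kept at 24 °C in saturated air for 48 h, then at 20 °C for 19 days. Disease control was rated visually from 0 to 100 relative to controls.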

[1] = test system: Puccinia recondite f. sp. tritici; test: Test E1: curative spray on wheat seedlings after inoculation, visual disease rating (wheat leaf rust)
In short: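 Seedlings inoculated with rust spores, held 24 h in saturated atmosphere at 20 °C, then 2 days at 20 °C before curative spray to run-off with test suspension (200 ppm ≈ 800 g/ha, or 40 ppm where marked) in acetone/water with surfactant. Visual disease control rating (0–100) after 6 further days at 20 °C.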

[2] = test system: Puccinia recondite f. sp. tritici; test: Test E2: preventive spray on wheat seedlings, visual disease rating (wheat leaf rust)
In short: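 Test suspension (acetone 3% of volume, acetone/water 50/50, 250 ppm Trem 014), 200 ppm unless starred (40 ppm), sprayed to run-off on wheat seedlings; inoculated next day with P. recondita spores. 24 h saturated atmosphere at 20 °C, then 7 days at 20 °C; visual rating, 100 = full control vs untreated.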

[3] = test system: Blumeria graminis f. sp. tritici; test: Test F: preventive spray on wheat seedlings, visual disease rating (wheat powdery mildew)
In short: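 Compound in acetone/water (50/50) with 250 ppm surfactant, sprayed to run-off on wheat seedlings at 200 ppm (≈800 g/ha) or, where marked, 40 ppm. Seedlings dusted with spores the next day, kept 8 days at 20° C., then rated visually as % disease control versus untreated plants.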

[4] = no asterisk: standard test suspension, not 40 ppm, 100 = 100% disease control, 0 = none
[5] = no asterisk: standard test suspension, not 40 ppm
[6] = asterisk: 40 ppm test suspension

Compound | Test A rating (% disease control) (Botrytis cinerea; [4]) | Test B rating (% disease control) (Alternaria solani; [5]) | Test C rating (% disease control) (Septoria nodorum; [5]) | Test D rating (% disease control) (Septoria tritici; [5]) | Test E1 rating (% disease control) [1, 5] | Test E2 rating (% disease control) [2, 5] | Test F rating (% disease control) [3, 5] | Test A rating (% disease control) (Botrytis cinerea; [6]) | Test B rating (% disease control) (Alternaria solani; [6]) | Test C rating (% disease control) (Septoria nodorum; [6]) | Test D rating (% disease control) (Septoria tritici; [6]) | Test E1 rating (% disease control) [1, 6] | Test E2 rating (% disease control) [2, 6] | Test F rating (% disease control) [3, 6]
Cc1nn(C)c(-c2ccc(F)cc2Cl)c1C(O)c1ccc(F)cc1Br (stereo not shown) [compound 23] | 100% | 67% | 87% | 100% | 98% | 100% | 84% |  |  |  |  |  |  | 
Cc1nn(C)c(-c2c(F)cccc2Cl)c1C(O)c1c(Cl)cccc1Cl (stereo not shown) [compound 85] | 97% | 84% | 0% | 100% | 9% | 100% | 50% |  |  |  |  |  |  | 
Cn1nc(C#N)c(C(=O)c2ccc(F)cc2Cl)c1-c1c(F)cccc1F [Compound 52, 4-(2-chloro-4-fluorobenzoyl)-5-(2,6-difluorophenyl)-1-methyl-1H-pyrazole-3-carbonitrile] | 100% | 100% | 99% | 100% | 98% | 100% | 100% |  |  |  |  |  |  | 
Cc1nn(C)c(-c2ccccc2Br)c1C(=O)c1ccc(F)cc1Cl [compound 78] | 0% | 31% | 40% | 0% | 0% | 79% | 99% |  |  |  |  |  |  | 
Cc1nn(C)c(-c2ccc(F)cc2F)c1Oc1ccc(C#N)cc1Cl [compound 35] | 98% | 0% | 0% | 100% | 9% | 73% | 0% |  |  |  |  |  |  | 
Cc1nn(C)c(-c2ccc(F)cc2Cl)c1Nc1ccc(F)cc1Br [compound 58] |  |  |  |  |  |  |  | 100* % | 8* % | 0* % | 100* % | 0* % | 98* % | 97* %
4-[(2-chloro-4-fluorophenyl)hydroxymethyl]-5-(2,6-difluorophenyl)-1-methyl-1H-pyrazole-3-carbonitrile [Compound 53] | 100% | 0% | 0% | 95% | 91% | 97% | 96% |  |  |  |  |  |  | 
Cc1nn(C)c(-c2c(Cl)cccc2Cl)c1C(O)c1ccc(F)cc1Cl (stereo not shown) [compound 69] | 99% | 100% | 96% | 100% | 0% | 99% | 97% |  |  |  |  |  |  | 
Cc1nn(C)c(-c2c(F)cccc2Cl)c1C(O)c1ccc(F)cc1F (stereo not shown) [compound 33] | 100% | 100% | 100% | 100% | 99% | 100% | 100% |  |  |  |  |  |  | 
Cc1nn(C)c(-c2c(F)cccc2F)c1C(O)c1ccc(C#N)cc1F (stereo not shown) [compound 22] | 88% | 84% | 0% | 100% | 17% | 88% | 0% |  |  |  |  |  |  | 
5-(2,6-difluorophenyl)-α-(4-fluoro-2-methylphenyl)-3-methoxy-1-methyl-1H-pyrazole-4-methanol [Compound 157] | 100% | 93% | 0% | 100% | 65% | 89% | 98% |  |  |  |  |  |  | 
Cc1nn(C)c(-c2c(F)cc(F)cc2F)c1C(=O)c1ccc(F)cc1F [compound 60] | 75% | 0% | 0% | 0% | 0% | 55% | 99% |  |  |  |  |  |  | 
COc1cc(F)c(C(O)c2c(C)nn(C)c2-c2c(F)cccc2Cl)c(F)c1 (stereo not shown) [compound 39] | 95% | 58% | 60% | 100% | 97% | 100% | 99% |  |  |  |  |  |  | 
Cc1nn(C)c(-c2ccccc2Br)c1C(O)c1ccc(F)cc1Cl (single isomer, unassigned) [compound 80] | 99% | 97% | 69% | 100% | 99% | 99% | 99% |  |  |  |  |  |  | 
Cc1nn(C)c(-c2c(F)cccc2Cl)c1C(O)c1c(Cl)cc(Cl)cc1Cl (stereo not shown) [compound 55] | 99% | 97% | 78% | 100% | 99% | 100% | 95% |  |  |  |  |  |  | 
Cc1nn(C)c(-c2c(F)cccc2F)c1[S+]([O-])c1ccc(Cl)cc1 (stereo not shown) [compound 63] | 0% | 0% | 0% | 0% | 0% | 28% | 76% |  |  |  |  |  |  | 

From patent publication US8754115B2, “Fungicidal pyrazoles” (E I du Pont de Nemours and Company, priority 2010, dated 2014)
